Like-named read-outs stand apart in the source and are kept apart here.
Test system: HepG2 human liver cancer cell line
Assay: Functional Mitochondrial Toxicity Assay, XFe96 Seahorse (HepG2)
Type: cell-based
Experimental: The present Examples interrogate the two major energy producing pathways in the cell, mitochondrial respiration and glycolysis. HepG2 human liver cancer cell lines were dosed with test compounds and in real time the extracellular oxygen levels and pH were measured using the XFe96 flux analyser (Seahorse Biosciences). XFe Technology uses solid-state sensors to simultaneously measure both oxygen consumption rate (OCR) and extracellular acidification rate (ECAR) to determine effects on oxidative phosphorylation (OXPHOS) and glycolysis simultaneously. The cells were then subjected to sequential exposure to various inhibitors of mitochondrial functional to assess cellular metabolism.
A positive mitochondrial active compound is determined when there is a change in OCR or ECAR in the absence of cytotoxicity. Cytotoxicity was determined when both oxidative phosphorylation (OCR) and glycolysis (ECAR) were inhibited.
OCR is a measurement of oxygen content in extracellular media. Changes in OCR indicate effects on mitochondrial function, and can be bi-directional. A decrease is due to an inhibition of mitochondrial respiration, whilst an increase may indicate an uncoupler, in which respiration is not linked to energy production.
ECAR is the measurement of extracellular proton concentration (pH). An increase in signal means an increase in rate in number of pH ions (Thus decreasing pH value), and seen as an increase in glycolysis. Expressed as a fraction of basal control (rate prior to addition of compound).
Reverse capacity is the measured ability of cells to respond to an increase in energy demand, a reduction indicates mitochondrial dysfunction.
The Mitochondrial Stress Test is a series of sequential additions of compounds to the cells to assess a bioenergetics profile, and effects of test compounds on parameters such as proton leak and research capacity. This was used to assist in understanding potential mechanisms of mitochondrial toxicity. For example, it involves the addition of the follow compounds in this order:
Oligomycin is a known inhibitor of ATP synthase, and prevents the formation of ATP. This provides a measurement of the amount of oxygen consumption related to ATP production and ATP turnover. The addition of Oligomycin results in a decrease in OCR under normal conditions, and residual OCR is related to the natural proton leak.
Carbonyl cyanide 4-(trifluoromethoxy)phenylhydrazine (FCCP) is a protonphore, and is a known uncoupler of oxygen consumption from ATP production. This allows the maximum achievable transfer of electrons and oxygen consumption rate, and provides a measurement of reserve capacity.
Rotenone and antimycin A are known inhibitors of complex I and III of the electron transport chain, respectively. This inhibits electron transport completely, and any residual oxygen consumption is due to non-mitochondrial activity via oxygen requiring enzymes.

[1] = HepG2, read-out: Reserve Capacity AC50

Row | Molecule | ECAR MEC (HepG2) | ECAR ↑↓ (HepG2) | OCR MEC (HepG2) | OCR ↑↓ (HepG2) | Potential Mechanism (HepG2) | Reserve Capacity MEC (HepG2) | Reserve Capacity ↑↓ (HepG2) | AC50 (Homo sapiens, HepG2, read-out: ECAR AC50) | AC50 (Homo sapiens, HepG2, read-out: OCR AC50) | AC50 (Homo sapiens, HepG2, read-out: Reserve Capacity AC50) | AC50 (HepG2, read-out: ECAR AC50) | AC50 (HepG2, read-out: OCR AC50) | AC50 [1] | Reserve Capacity MEC (HepG2, listed as I-3 (1)) | Reserve Capacity MEC (HepG2, listed as I-3 (2))
1 | C=C(C)[C@H]1Cc2c(ccc3c2O[C@@H]2COc4cc(OC)c(OC)cc4[C@@H]2C3=O)O1 [Rotenone, reference compound] | 0.00325 µM | ↑ | <0.003 µM | ↓ | ETC | <0.003 µM | ↓ | 0.496 µM | 0.0138 µM | 0.00349 µM | – | – | – | – | –
2 | (L-Phe)(L-Orn)(L-Tyr)(D-Orn)-NH2 [Peptide I-15] | – | – | – | – | Other | 64.7 µM | ↑ | – | – | – | > 100 µM | > 100 µM | > 100 µM | – | –
3 | (D-Arg)(L-Dmt)(L-Orn)(L-Tyr)-NH2 [Peptide I-10] | – | – | – | – | No effect | – | – | – | – | – | > 100 µM | > 100 µM | > 100 µM | – | –
4 | (D-Arg)(L-Leu)(L-Orn)(L-Leu)-NH2 [Peptide I-24] | – | – | – | – | Other | 33.8 µM | ↑ | – | – | – | > 100 µM | > 100 µM | > 100 µM | – | –
5 | (D-Leu)(D-Orn)(D-Leu)(L-Orn)-NH2 [Peptide I-37] | – | – | 143 µM | ↓ | Other | <0.1 µM | ↓ | – | – | – | > 100 µM | > 100 µM | 1.11 µM | – | –
6 | (D-Phe)(D-Orn)(D-Leu)(L-Arg)-NH2 [Peptide I-35] | – | – | – | – | Other | <0.1 µM | ↓ | – | – | – | > 100 µM | > 100 µM | 5.28 µM | – | –
7 | (D-Orn)((L-Dmt)(L-Orn)(L-Phe)-NH2 [Peptide I-4] | – | – | – | – | No effect | – | – | – | – | – | > 100 µM | > 100 µM | > 100 µM | – | –
8 | (D-Phe)(D-Lys)(D-Leu)(L-Arg)-NH2 [Peptide I-34] | – | – | – | – | Other | <0.1 µM | ↓ | – | – | – | > 100 µM | > 100 µM | 0.957 µM | – | –
9 | (D-Phe)(D-Orn)(D-Leu)(L-Orn)-NH2 [Peptide I-36] | – | – | – | – | Other | 0.139 µM | ↓ | – | – | – | > 100 µM | > 100 µM | 6.45 µM | – | –
10 | (L-Phe)(L-Orn)(L-Dmt)(D-Arg)-NH2 [Peptide I-12] | – | – | – | – | No effect | – | – | – | – | – | > 100 µM | > 100 µM | > 100 µM | – | –
11 | (D-Arg)(L-Leu)(L-Orn)(L-Phe)-NH2 [Peptide I-23] | – | – | – | – | Other | 65.9 µM | ↑ | – | – | – | > 100 µM | > 100 µM | > 100 µM | – | –
12 | (L-Phe)(L-Orn)(L-Tyr)(D-Arg)-NH2 [Peptide I-14] | – | – | – | – | No effect | – | – | – | – | – | > 100 µM | > 100 µM | > 100 µM | – | –
13 | (L-Phe)(L-Lys)(L-Phe)(D-Arg)-NH2 [Peptide I-29] | – | – | – | – | Other | 0.203 µM | ↓ | – | – | – | > 100 µM | > 100 µM | 4.17 µM | – | –
14 | (L-Phe)(L-Lys)(L-Leu)(D-Arg)-NH2 [Peptide I-28] | – | – | – | – | Other | <0.1 µM | ↓ | – | – | – | > 100 µM | > 100 µM | 1.28 µM | – | –
15 | (L-Leu)(L-Orn)(L-Leu)(D-Orn)-NH2 [Peptide I-32] | – | – | – | – | Other | 0.277 µM | ↓ | – | – | – | > 100 µM | > 100 µM | 9.32 µM | – | –
16 | (D-Arg)(L-Tyr)(L-Orn)(L-Phe)-NH2 [Peptide I-3] | – | – | – | – | Other | – | ↑ | – | – | – | > 100 µM | > 100 µM | > 100 µM | 48.5 µM | 85.3 µM

From patent US10870678B2, “Chiral peptides” (ARCUATE THERAPEUTICS, INC., priority 2016, dated 2020)
